Experimental findings from article PMC4658348 (ACS chemical biology, 2015) are described below.

Holding throughout (assay type): biochemical
Experiment [1] addresses T1, vacuolar-type ATPase (V-ATPase) (Saccharomyces cerevisiae, UniProt P25515+P32563). Nature of the experiment: enzyme-coupled ATPase assay.
The target of experiment [2] is T1, vacuolar-type ATPase (V-ATPase). Put plainly: enzyme-coupled ATPase assay. The source holds these as a separate data set.
The next experiment deals with human HSP90α (Homo sapiens, UniProt P07900). Nature of the experiment: ATP/NADH-coupled ATPase assay.

pIC50: −log10 of the molar value.

Consider `CO/C1=C\C(C)=C\[C@@H](C)[C@@H](O)[C@@H](C)C/C(C)=C/C=C/[C@H](OC)[C@@H]([C@@H](C)[C@@H](O)[C@H](C)[C@@]2(O)C[C@@H](O)[C@H](C)[C@@H](C(C)C)O2)OC1=O` [bafilomycin A1], for which the “enzyme-coupled ATPase assay (NADH loss) with purified V-ATPase” value in experiment [1] was “Oxohygrolidin (black bar) inhibited V-ATPase comparable to the plecomacrolides, bafilomycin A1(dotted bar), and concanamycin A (hatched bar)”. For orientation: pIC50 means the negative decadic logarithm of the IC50, by convention in mol/L. For the compound `CC[C@@H](O)[C@H](C)/C=C/C(=O)[C@@H](C)[C@H](O)[C@H](C)[C@H]1OC(=O)/C(C)=C/C(C)=C/[C@@H](C)[C@@H](O)[C@@H](C)C/C(C)=C/C=C/[C@@H]1OC` [oxohygrolidin], the negative-log IC50 (pIC50) is about 6.60 in experiment [2] and about 4.30 against human HSP90α.
